Assay results taken from US12084472B2 (Ardelyx, Inc., priority 2015, dated 2024).

Molecular target: T1, human TGR5 (Homo sapiens, UniProt Q8TDU6)
T1 construct: expressed in transfected cells; host or cells: HEK293
T1 sequence (Q8TDU6 1-330): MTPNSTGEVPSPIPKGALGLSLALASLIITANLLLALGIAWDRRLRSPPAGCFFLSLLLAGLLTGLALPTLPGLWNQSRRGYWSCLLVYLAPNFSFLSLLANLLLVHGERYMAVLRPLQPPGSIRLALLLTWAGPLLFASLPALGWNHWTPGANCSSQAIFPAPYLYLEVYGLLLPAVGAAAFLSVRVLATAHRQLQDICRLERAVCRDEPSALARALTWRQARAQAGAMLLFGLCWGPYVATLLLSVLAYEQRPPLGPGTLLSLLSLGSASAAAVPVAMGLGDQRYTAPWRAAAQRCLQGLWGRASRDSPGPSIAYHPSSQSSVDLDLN
Assay: Cell-based TGR5 assay (cAMP generation, HTRF)
Settings: HEK293 cells stably transfected with human TGR5; cAMP by HTRF; 30 minutes at 37° C.; read-out: pEC50 Human TGR5 (converted)
How it was run: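 First, compounds in 3-fold serial dilution were placed in HBSS with 10 mM HEPES pH 7.4 and 0.5 mM IBMX. Next, human TGR5-expressing HEK293 cells were added and incubated 30 min at 37° C. Finally, cAMP was detected by HTRF and pEC50 derived by logistic fitting.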

EC50	Compound
< 0.1 µM	O=C(CN1CCC(NC(=O)NCCCCCSc2ccc(Cl)c(COC3(c4cnccc4-c4ccccc4OC4CC4)CC3)c2)CC1)NC[C@H](O)[C@@H](O)[C@H](O)[C@H](O)CO [Compound I-631, 2-(4-{[(5-{[4-chloro-3-({1-[4-(2-cyclopropoxyphenyl)pyridin-3-yl]cyclopropoxy}methyl)phenyl]sulfanyl}pentyl)carbamoyl]amino}piperidin-1-yl)-N-[(2S,3R,4R,5R)-2,3,4,5,6-pentahydroxyhexyl]acetamide]
< 0.1 µM	CC(=O)N(CCCCc1cc(Cl)c(COC2(c3cnccc3-c3ccccc3OC3CC3)CC2)cc1Cl)C[C@H](O)[C@@H](O)[C@H](O)[C@H](O)CO [Compound I-68, N-{4-[2,5-dichloro-4-({1-[4-(2-cyclopropoxyphenyl)pyridin-3-yl]cyclopropoxy}methyl)phenyl]butyl}-N-[(2S,3R,4R,5R)-2,3,4,5,6-pentahydroxyhexyl]acetamide]
0.126 to 1 µM	CCNC(=O)CCN(C[C@H](O)[C@@H](O)[C@H](O)[C@H](O)CO)C(=O)CCCC(C)c1ccc(Cl)c(CNC2(c3cnccc3-c3ccccc3OC3CC3)CC2)c1 (stereo partly drawn) [Compound I-344, 5-{4-chloro-3-[({1-[4-(2-cyclopropoxyphenyl)pyridin-3-yl]cyclopropyl}amino)methyl]phenyl}-N-[2-(ethylcarbamoyl)ethyl]-N-[(2S,3R,4R,5R)-2,3,4,5,6-pentahydroxyhexyl]hexanamide]
< 0.1 µM	Cc1ccc(CCCCC(=O)NC[C@H](O)[C@@H](O)[C@H](O)[C@H](O)CO)cc1COC1(c2cnccc2-c2ccccc2OC2CC2)CC1 (stereo in doubt) [Compound I-235, 5-[3-({1-[4-(2-cyclopropoxyphenyl)pyridin-3-yl]cyclopropoxy}methyl)-4-methylphenyl]-N-[(2S,3R,4R,5R)-2,3,4,5,6-pentahydroxyhexyl]pentanamide]
< 0.1 µM	NS(=O)(=O)CCN(CCCCc1cc(Cl)c(COC2(c3cnccc3-c3ccccc3OC3CC3)CC2)cc1Cl)C(=O)[C@H](O)[C@@H](O)[C@H](O)[C@H](O)CO [Compound I-84, (2R,3S,4R,5R)-N-{4-[2,5-dichloro-4-({1-[4-(2-cyclopropoxyphenyl)pyridin-3-yl]cyclopropoxy}methyl)phenyl]butyl}-2,3,4,5,6-pentahydroxy-N-(2-sulfamoylethyl)hexanamide]
0.126 to 1 µM	Cn1c(C(=O)N[C@@H](CO)[C@@H](O)[C@H](O)[C@H](O)CO)cnc1SCc1ccc(Cl)c(COC2(c3cnccc3-c3ccccc3OC3CC3)CC2)c1 [Compound I-759, 2-((4-chloro-3-((1-(4-(2-cyclopropoxyphenyl)pyridin-3-yl)cyclopropoxy)methyl)benzyl)thio)-1-methyl-N-((2S,3R,4S,5R)-1,3,4,5,6-pentahydroxyhexan-2-yl)-1H-imidazole-5-carboxamide]
0.126 to 1 µM	C[C@@H](CCCCN)c1ccc(Cl)c(COC2(c3cnccc3-c3ccccc3OC3CC3)CC2)c1 (single isomer, unassigned) [Compound I-246]
0.126 to 1 µM	Cc1ccc(SCCCCN(CCCCO)C(=O)[C@@H](O)[C@@H](O)[C@H](O)[C@@H](O)CO)cc1COC1(c2cnccc2-c2ccccc2OC2CC2)CC1 [Compound I-541, (2S,3S,4R,5S)-N-(4-{[3-({1-[4-(2-cyclopropoxyphenyl)pyridin-3-yl]cyclopropoxy}methyl)-4-methylphenyl]sulfanyl}butyl)-2,3,4,5,6-pentahydroxy-N-(4-hydroxybutyl)hexanamide]
< 0.1 µM	Cc1cc(COC2(c3cnccc3-c3ccccc3OC3CC3)CC2)c(Cl)cc1CCCCN(C)C(=O)[C@@H](O)[C@@H](O)[C@H](O)[C@@H](O)CO [Compound I-132, (2S,3S,4R,5S)-N-{4-[5-chloro-4-({1-[4-(2-cyclopropoxyphenyl)pyridin-3-yl]cyclopropoxy}methyl)-2-methylphenyl]butyl}-2,3,4,5,6-pentahydroxy-N-methylhexanamide]
0.126 to 1 µM	Cc1ccc(SCCCN(CCS(C)(=O)=O)C[C@H](O)[C@@H](O)[C@H](O)[C@H](O)CO)cc1COC1(c2cnccc2-c2ccccc2OC2CC2)CC1 [Compound I-614, (2R,3R,4R,5S)-6-[(3-{[3-({1-[4-(2-cyclopropoxyphenyl)pyridin-3-yl]cyclopropoxy}methyl)-4-methylphenyl]sulfanyl}propyl)(2-methanesulfonylethyl)amino]hexane-1,2,3,4,5-pentol]
0.126 to 1 µM	CN(C)CCN(C[C@H](O)[C@@H](O)[C@H](O)[C@H](O)CO)C(=O)CCCSc1ccc(Cl)c(COC2(c3cnccc3-c3ccccc3OC3CC3)CC2)c1 [Compound I-662, 4-{[4-chloro-3-({1-[4-(2-cyclopropoxyphenyl)pyridin-3-yl]cyclopropoxy}methyl)phenyl]sulfanyl}-N-[2-(dimethylamino)ethyl]-N-[(2S,3R,4R,5R)-2,3,4,5,6-pentahydroxyhexyl]butanamide]
< 0.1 µM	O=C(NCCCCCSc1ccc(Cl)c(CNC2(c3cnccc3-c3ccccc3OC3CC3)CC2)c1)NC[C@H](O)[C@@H](O)[C@H](O)[C@H](O)CO [Compound I-494, 1-[5-([4-Chloro-3-[([1-[4-(2-cyclopropoxyphenyl)pyridin-3-yl]cyclopropyl]amino)methyl]phenyl]sulfanyl)pentyl]-3-[(2S,3R,4R,5R)-2,3,4,5,6-pentahydroxyhexyl]urea]
< 0.1 µM	C[C@H](CCCC(=O)N(C)C[C@H](O)[C@@H](O)[C@H](O)[C@H](O)CO)c1ccc(Cl)c(CNC2(c3cnccc3-c3ccccc3OC3CC3)CC2)c1 (single isomer, unassigned) [Compound I-326]
< 0.1 µM	COCCN(CCCCNC(=O)NC[C@H](O)[C@@H](O)[C@H](O)[C@H](O)CO)S(=O)(=O)c1ccc(Cl)c(COC2(c3cnccc3-c3ccccc3OC3CC3)CC2)c1 (stereo in doubt) [Compound I-407, 1-{4-[N-(2-methoxyethyl)4-chloro-3-({1-[4-(2-cyclopropoxyphenyl)pyridin-3-yl]cyclopropoxy}methyl)benzenesulfonamido]butyl}-3-[(2S,3R,4R,5R)-2,3,4,5,6-pentahydroxyhexyl]urea]
< 0.1 µM	Cc1cc(COC2(c3cnccc3-c3ccccc3OC3CC3)CC2)c(Cl)cc1CCCCNC(=O)NC[C@@H]1O[C@H](CO)[C@@H](O)[C@H](O)[C@H]1O [Compound I-109, 3-{4-[5-chloro-4-({1-[4-(2-cyclopropoxyphenyl)pyridin-3-yl]cyclopropoxy}methyl)-2-methylphenyl]butyl}-1-{[(2S,3R,4R,5S,6R)-3,4,5-trihydroxy-6-(hydroxymethyl)oxan-2-yl]methyl}urea]
12.6 to 50.1 µM	Cc1cnc(SCCCC(=O)N(C)C[C@H](O)[C@@H](O)[C@H](O)[C@H](O)CO)nc1CNC1(c2cnccc2-c2ccccc2OC2CC2)CC1 [Compound I-656, 4-({4-[({1-[4-(2-cyclopropoxyphenyl)pyridin-3-yl]cyclopropyl}amino)methyl]-5-methylpyrimidin-2-yl}sulfanyl)-N-methyl-N-[(2S,3R,4R,5R)-2,3,4,5,6-pentahydroxyhexyl]butanamide]
< 0.1 µM	CN(C[C@H](O)[C@@H](O)[C@H](O)[C@H](O)CO)C(=O)CCCCc1ccc(Cl)c(CNC2(c3cnccc3-c3ccccc3OC3CC3)CC2)c1 (stereo in doubt) [Compound I-234, 5-{4-chloro-3-[({1-[4-(2-cyclopropoxyphenyl)pyridin-3-yl]cyclopropyl}amino)methyl]phenyl}-N-methyl-N-[(2S,3R,4R,5R)-2,3,4,5,6-pentahydroxyhexyl]pentanamide]
0.126 to 1 µM	COc1cc(C)c(CNC2(c3cnccc3-c3ccccc3OC3CC3)CC2)cc1C [Compound I-29, 1-[4-(2-cyclopropoxyphenyl)pyridin-3-yl]-N-[(4-methoxy-2,5-dimethylphenyl)methyl]cyclopropan-1-amine]
< 0.1 µM	CS(=O)(=O)NCCCN(CCCCSc1ccc(Cl)c(COC2(c3cnccc3-c3ccccc3OC3CC3)CC2)c1)C(=O)[C@@H](O)[C@@H](O)[C@H](O)[C@@H](O)CO [Compound I-577, (2S,3S,4R,5S)-N-(4-{[4-chloro-3-({1-[4-(2-cyclopropoxyphenyl)pyridin-3-yl]cyclopropoxy}methyl)phenyl]sulfanyl}butyl)-2,3,4,5,6-pentahydroxy-N-(3-methanesulfonamidopropyl) hexanamide]
< 0.1 µM	Cc1ccc(SCCCCN(CCOCCO)C(=O)[C@@H](O)[C@@H](O)[C@H](O)[C@@H](O)CO)cc1CNC1(c2cnccc2-c2ccccc2OC2CC2)CC1 [Compound I-549, (2S,3S,4R,5S)-N-[4-({3-[({1-[4-(2-cyclopropoxyphenyl)pyridin-3-yl]cyclopropyl}amino)methyl]-4-methylphenyl}sulfanyl)butyl]-2,3,4,5,6-pentahydroxy-N-[2-(2-hydroxyethoxy)ethyl]hexanamide]
< 0.1 µM	O=C([C@@H](O)[C@@H](O)[C@H](O)[C@@H](O)CO)N(CCCCCO)CCCCCSc1ccc(Cl)c(CNC2(c3cnccc3-c3ccccc3OC3CC3)CC2)c1 [Compound I-601, (2S,3S,4R,5S)-N-[5-({4-chloro-3-[({1-[4-(2-cyclopropoxyphenyl)pyridin-3-yl]cyclopropyl}amino)methyl]phenyl}sulfanyl)pentyl]-2,3,4,5,6-pentahydroxy-N-(5-hydroxypentyl)hexanamide]
